In PMC6171417, “Carbonic anhydrase inhibition with a series of novel benzenesulfonamide-triazole conjugates” (Journal of Enzyme Inhibition and Medicinal Chemistry, 2018):

Assays:
Assay in all cases: cells
Design in all cases: species or system NCI human tumour cell line panel
A549/ATCC = settings: Homo sapiens, A549; growth inhibition (GI%), single dose
HOP-62 = settings: Homo sapiens, HOP-62; growth inhibition (GI%), single dose
HOP-92 = settings: Homo sapiens, HOP-92; growth inhibition (GI%), single dose
SF-539 = settings: Homo sapiens, SF-539; growth inhibition (GI%), single dose
SN12C = settings: Homo sapiens, SN12C; growth inhibition (GI%), single dose
SNB-19 = settings: Homo sapiens, SNB-19; growth inhibition (GI%), single dose
UACC-62 = settings: Homo sapiens, UACC-62; growth inhibition (GI%), single dose

`N#Cc1nnn(-c2ccc(S(N)(=O)=O)cc2)c1NC(=O)CCl` [compound 5, 5] was tested, and the inhibition at 10 µM (A549/ATCC) was 7.2%, the inhibition at 10 µM (HOP-62) was 7.9% and the inhibition at 10 µM (HOP-92) was 3.9%. The inhibition at 10 µM (SF-539) was 1.3%, the inhibition at 10 µM (SN12C) was 11.8% and the inhibition at 10 µM (SNB-19) was 3.8%. The inhibition at 10 µM (UACC-62) was 3.4%.
